Key:
Type in all cases: functional, cell-based
ECC10 = assay: cells; conditions: Homo sapiens;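 note: growth inhibition of ECC10 cells, read out by a cell viability assay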
Description: SANGER: Inhibition of human ECC10 cell growth in a cell viability assay.

EPLC-272H = assay: cells; conditions: Homo sapiens
Description: SANGER: Inhibition of human EPLC-272H cell growth in a cell viability assay.

H-EMC-SS = assay: cells; conditions: Homo sapiens
Description: SANGER: Inhibition of human H-EMC-SS cell growth in a cell viability assay.

H9 = assay: cells; conditions: Homo sapiens
Description: SANGER: Inhibition of human H9 cell growth in a cell viability assay.

KNS-62 = assay: cells; conditions: Homo sapiens;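 note: inhibition of cell growth, read out with a cell viability assay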
Description: SANGER: Inhibition of human KNS-62 cell growth in a cell viability assay.

LU-135 = assay: cells; conditions: Homo sapiens
Description: SANGER: Inhibition of human LU-135 cell growth in a cell viability assay.

NBsusSR = assay: cells; conditions: Homo sapiens;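 note: growth inhibition of the human cell line, read out with a cell viability assay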
Description: SANGER: Inhibition of human NBsusSR cell growth in a cell viability assay.

NCI-H1048 = assay: cells; conditions: Homo sapiens;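 note: growth inhibition of human NCI-H1048 cells, read out with a cell viability assay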
Description: SANGER: Inhibition of human NCI-H1048 cell growth in a cell viability assay.

NCI-H1666 = assay: cells; conditions: Homo sapiens;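 note: growth inhibition of the cell line, read out with a cell viability assay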
Description: SANGER: Inhibition of human NCI-H1666 cell growth in a cell viability assay.

NCI-H2029 = assay: cells; conditions: Homo sapiens;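 note: Read-out is a viability assay on the cultured cells, and IC50 is the concentration that suppresses cell growth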
Description: SANGER: Inhibition of human NCI-H2029 cell growth in a cell viability assay.

OC-314 = assay: cells; conditions: Homo sapiens
Description: SANGER: Inhibition of human OC-314 cell growth in a cell viability assay.

RH-18 = assay: cells; conditions: Homo sapiens, Rh18;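 note: growth inhibition of human RH-18 cells, read out with a cell viability assay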
Description: SANGER: Inhibition of human RH-18 cell growth in a cell viability assay.

SW 1116 = assay: cells; conditions: Homo sapiens;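 note: growth inhibition of SW1116 cells, read out with a cell viability assay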
Description: SANGER: Inhibition of human SW1116 cell growth in a cell viability assay.

SW900 = assay: cells; conditions: Homo sapiens;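 note: IC50 is the concentration that inhibits SW900 cell growth, measured by a cell viability assay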
Description: SANGER: Inhibition of human SW900 cell growth in a cell viability assay.

A549 = assay: cells; conditions: Homo sapiens;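 note: growth inhibition of A549 cells, read out with a cell viability assay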
Description: SANGER: Inhibition of human A549 cell growth in a cell viability assay.

BT-549 = assay: cells; conditions: Homo sapiens
Description: SANGER: Inhibition of human BT-549 cell growth in a cell viability assay.

TGBC11TKB = assay: cells; conditions: Homo sapiens;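 note: growth inhibition of human TGBC11TKB cells, measured by a cell viability assay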
Description: SANGER: Inhibition of human TGBC11TKB cell growth in a cell viability assay.

TI-73 = assay: cells; conditions: Homo sapiens;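 note: cell viability assay measuring how much compounds suppress growth of the cultured cell line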
Description: SANGER: Inhibition of human TI-73 cell growth in a cell viability assay.

YH-13 = assay: cells; conditions: Homo sapiens;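 note: cell viability readout of growth suppression in the human YH-13 cell line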
Description: SANGER: Inhibition of human YH-13 cell growth in a cell viability assay.

ZR-75-30 = assay: cells; conditions: Homo sapiens;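 note: growth inhibition of ZR-75-30 cells, measured with a cell viability readout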
Description: SANGER: Inhibition of human ZR-75-30 cell growth in a cell viability assay.

CFPAC-1 = assay: cells; conditions: Homo sapiens;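 note: cell viability readout used to gauge suppression of CFPAC-1 cell proliferation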
Description: SANGER: Inhibition of human CFPAC-1 cell growth in a cell viability assay.

CP67-MEL = assay: SANGER: Inhibition of human CP67-MEL cell growth in a cell viability assay.
EW-12 = assay: SANGER: Inhibition of human EW-12 cell growth in a cell viability assay.
KP-N-RT-BM-1 = assay: SANGER: Inhibition of human KP-N-RT-BM-1 cell growth in a cell viability assay.
NCI-H128 = assay: SANGER: Inhibition of human NCI-H128 cell growth in a cell viability assay.
NCI-H2107 = assay: SANGER: Inhibition of human NCI-H2107 cell growth in a cell viability assay.
RL95-2 = assay: cells; conditions: Homo sapiens;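 note: RL95-2 growth inhibition determined through a cell viability readout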
Description: SANGER: Inhibition of human RL95-2 cell growth in a cell viability assay.

SKM-1 = assay: SANGER: Inhibition of human SKM-1 cell growth in a cell viability assay.

Structure (SMILES) | IC50 (ECC10) [nM] | IC50 (EPLC-272H) [nM] | IC50 (H-EMC-SS) [nM] | IC50 (H9) [nM] | IC50 (KNS-62) [nM] | IC50 (LU-135) [nM] | IC50 (NBsusSR) [nM] | IC50 (NCI-H1048) [nM] | IC50 (NCI-H1666) [nM] | IC50 (OC-314) [nM] | IC50 (SW900) [nM] | IC50 (A549) [nM] | IC50 (BT-549) [nM] | IC50 (TGBC11TKB) [nM] | IC50 (TI-73) [nM] | IC50 (YH-13) [nM] | IC50 (CFPAC-1) [nM] | further results
COc1cc(Nc2c(C#N)cnc3cc(OCCCN4CCN(C)CC4)c(OC)cc23)c(Cl)cc1Cl [BOSUTINIB] | > 2000 | > 2000 | > 2000 | 435 | > 2000 | > 2000 | > 2000 | > 2000 | > 2000 | 870 | > 2000 | > 2000 | > 2000 | > 2000 | 1020 | > 2000 | > 2000 | IC50 (NCI-H2029): > 2000 nM; IC50 (RH-18): > 2000 nM; IC50 (SW 1116): > 2000 nM; IC50 (ZR-75-30): > 2000 nM
CC[C@@]1(O)C(=O)OCc2c1cc1n(c2=O)Cc2cc3ccccc3nc2-1 [CAMPTOTHECIN] | 3.85 | 72.8 | 95.6 | 0.358 | 7.7 | 28.2 | 0.194 | 0.529 | 18.7 | 2.51 | 31.8 | 14.1 | 17.6 | 12.2 | 14.6 | 11.6 | 14.8 | –
Cc1nc(Nc2ncc(C(=O)Nc3c(C)cccc3Cl)s2)cc(N2CCN(CCO)CC2)n1 [DASATINIB] | – | – | – | – | – | – | – | – | – | – | – | – | – | – | – | – | – | IC50 (CP67-MEL): 205 nM; IC50 (EW-12): > 1280 nM; IC50 (KP-N-RT-BM-1): > 1280 nM; IC50 (NCI-H128): > 1280 nM; IC50 (NCI-H2107): > 1280 nM; IC50 (RL95-2): 104 nM; IC50 (SKM-1): > 1280 nM
